This is an account of results in patent US7101878B1 (Agouron Pharmaceuticals, Inc., priority 1998, dated 2006).

Molecules are shown by their SMILES.

In the first test the target is T1, mouse GnRH receptor (Mus musculus, UniProt Q01776).
T1 construct: expressed in transfected cells; host or cells: 293 cells
T1 sequence (Q01776 1-327): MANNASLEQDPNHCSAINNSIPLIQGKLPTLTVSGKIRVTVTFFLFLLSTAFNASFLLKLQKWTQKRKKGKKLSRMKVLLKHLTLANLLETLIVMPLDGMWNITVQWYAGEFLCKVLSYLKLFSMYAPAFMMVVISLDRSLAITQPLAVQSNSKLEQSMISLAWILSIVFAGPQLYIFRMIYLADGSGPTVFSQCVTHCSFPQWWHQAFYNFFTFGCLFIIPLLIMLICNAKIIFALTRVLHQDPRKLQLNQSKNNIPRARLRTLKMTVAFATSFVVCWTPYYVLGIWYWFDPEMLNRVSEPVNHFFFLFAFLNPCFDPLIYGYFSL
Briefly: Radioligand binding, 125I-GnRH-A, 293 cells expressing mouse GnRH receptors. Conditions: 10 uM. An outline of the steps:
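Bound label captured on 0.1% polyethyleneimine-treated GF/C filters, washed three times with PBS, counted. IC50 derived; identical set-up for every species.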
As for `Cc1cc2c(cc1Cc1ccc(C(=O)NC(CO)C(C)C)o1)C(C)(C)CCC2(C)C` (centres unmarked) [drawing 1479], the “% Inhib. @ 10 uM mGnRH” value was 103%.

Staying with this test, now noted: 10 uM; read-out: % Inhib. @ 10 uM mGnRH.
Consider `COc1cccc(CN(Cc2cccc(Oc3cccc(C(F)(F)F)c3)c2)C(=O)c2ccc(Cc3cc4c(cc3C)C(C)(C)CCC4(C)C)o2)c1OC` [drawing 1307], for which the inhibition at 10 µM was 75%.

On to `Cc1cc2c(cc1Cc1ccc(C(=O)N3CCC(CNC(=O)C(F)(F)F)CC3)o1)C(C)(C)CCC2(C)C` [drawing 1308], for which the inhibition at 10 µM is 41%.

On to `Cc1cc2c(cc1Cc1ccc(C(=O)N(CCC#N)Cc3ccco3)o1)C(C)(C)CCC2(C)C` [drawing 1309], for which the inhibition at 10 µM amounted to 77%.

Consider `Cc1cc2c(cc1Cc1ccc(C(=O)N(Cc3cccnc3)CC3CC=CCC3)o1)C(C)(C)CCC2(C)C` (centres unmarked) [drawing 1318], for which the inhibition at 10 µM was 94%.

Take `Cc1cc2c(cc1Cc1ccc(C(=O)NC(CO)CC(C)C)o1)C(C)(C)CCC2(C)C` (centres unmarked) [drawing 1320]: the inhibition at 10 µM is 98%.

Turning to `Cc1cc2c(cc1Cc1ccc(C(=O)NCCc3ccc(Br)cc3)o1)C(C)(C)CCC2(C)C` [drawing 1371], the inhibition at 10 µM was 47%.

As to `Cc1cc2c(cc1Cc1ccc(C(=O)NCc3ccccc3-c3ccccc3)o1)C(C)(C)CCC2(C)C` [drawing 1372], the inhibition at 10 µM came to 74%.

In the case of `Cc1cc2c(cc1Cc1ccc(C(=O)NC3CCc4ccccc43)o1)C(C)(C)CCC2(C)C` (centres unmarked) [drawing 1375], the inhibition at 10 µM is 57%.

On to `COC(CCCNC(=O)c1ccc(Cc2cc3c(cc2C)C(C)(C)CCC3(C)C)o1)OC` [drawing 1383], for which the inhibition at 10 µM was 101%.

Turning to `Cc1cc2c(cc1Cc1ccc(C(=O)NCCCO)o1)C(C)(C)CCC2(C)C` [drawing 1417], the inhibition at 10 µM was found to be 96%.

For the molecule `Cc1cc2c(cc1Cc1ccc(C(=O)N(C)C3CCN(C)CC3)o1)C(C)(C)CCC2(C)C` [drawing 1420], the inhibition at 10 µM is 89%.

With `COc1ccccc1N1CCN(C(=O)c2ccc(Cc3cc4c(cc3C)C(C)(C)CCC4(C)C)o2)CC1` [drawing 1421], the inhibition at 10 µM is 73%.

For `Cc1cc2c(cc1Cc1ccc(C(=O)N3CCc4ccccc4C3)o1)C(C)(C)CCC2(C)C` [drawing 1422], the inhibition at 10 µM amounted to 70%.

`Cc1cc2c(cc1Cc1ccc(C(=O)N3CCC(O)(c4ccc(Cl)cc4)CC3)o1)C(C)(C)CCC2(C)C` [drawing 1423]: the inhibition at 10 µM amounted to 43%.

`CC(=O)N1CCN(C(=O)c2ccc(Cc3cc4c(cc3C)C(C)(C)CCC4(C)C)o2)CC1` [drawing 1424]: the inhibition at 10 µM was 71%.

For the molecule `Cc1cc2c(cc1Cc1ccc(C(=O)N3CCC(Cc4ccccc4)CC3)o1)C(C)(C)CCC2(C)C` [drawing 1425], the inhibition at 10 µM came out at 48%.

Regarding `Cc1cc2c(cc1Cc1ccc(C(=O)N3CC(C)OC(C)C3)o1)C(C)(C)CCC2(C)C` (centres unmarked) [drawing 1426], the inhibition at 10 µM turned out to be 84%.

Turning to `Cc1cc2c(cc1Cc1ccc(C(=O)N3CCC(CCCC4CCN(CCO)CC4)CC3)o1)C(C)(C)CCC2(C)C` [drawing 1427], the inhibition at 10 µM came out at 104%.

For the molecule `CCN(CC)CCN(C)C(=O)c1ccc(Cc2cc3c(cc2C)C(C)(C)CCC3(C)C)o1` [drawing 1428], the inhibition at 10 µM was 68%.

Consider `Cc1cc2c(cc1Cc1ccc(C(=O)N3CCN(CCO)CC3)o1)C(C)(C)CCC2(C)C` [drawing 1429], for which the inhibition at 10 µM came to 69%.

Take `Cc1cc2c(cc1Cc1ccc(C(=O)N3CC=CCC3)o1)C(C)(C)CCC2(C)C` [drawing 1430]: the inhibition at 10 µM came out at 69%.

For `Cc1cc2c(cc1Cc1ccc(C(=O)N3CCN(CC(=O)N4CCCC4)CC3)o1)C(C)(C)CCC2(C)C` [drawing 1432], the inhibition at 10 µM came to 79%.

Regarding `Cc1cc2c(cc1Cc1ccc(C(=O)N3CCCCCCC3)o1)C(C)(C)CCC2(C)C` [drawing 1433], the inhibition at 10 µM turned out to be 88%.

With `COc1ccc(C(NC(=O)c2ccc(Cc3cc4c(cc3C)C(C)(C)CCC4(C)C)o2)C2CC2)cc1` (centres unmarked) [drawing 1435], the inhibition at 10 µM was found to be 83%.

On to `Cc1cc2c(cc1Cc1ccc(C(=O)N3CCCCC3C(=O)NC(c3ccccc3)c3ccccc3)o1)C(C)(C)CCC2(C)C` (centres unmarked) [drawing 1436], for which the inhibition at 10 µM is 43%.

Turning to `Cc1cc2c(cc1Cc1ccc(C(=O)NCCCCCO)o1)C(C)(C)CCC2(C)C` [drawing 1437], the inhibition at 10 µM came to 99%.

For the molecule `Cc1cc2c(cc1Cc1ccc(C(=O)NCC(C)(C)CO)o1)C(C)(C)CCC2(C)C` [drawing 1438], the inhibition at 10 µM was 84%.

In the case of `C=CCN(CC=C)C(=O)c1ccc(Cc2cc3c(cc2C)C(C)(C)CCC3(C)C)o1` [drawing 1440], the inhibition at 10 µM amounted to 83%.

For `CC(=O)N(C)C1CCN(C(=O)c2ccc(Cc3cc4c(cc3C)C(C)(C)CCC4(C)C)o2)C1` (centres unmarked) [drawing 1441], the inhibition at 10 µM amounted to 74%.

Turning to `Cc1cc2c(cc1Cc1ccc(C(=O)NCC(C)O)o1)C(C)(C)CCC2(C)C` (centres unmarked) [drawing 1443], the inhibition at 10 µM is 90%.

`Cc1cc2c(cc1Cc1ccc(C(=O)NC(C)(CO)CO)o1)C(C)(C)CCC2(C)C` [drawing 1444]: the inhibition at 10 µM turned out to be 55%.

For the molecule `Cc1cc2c(cc1Cc1ccc(C(=O)NCC3(O)CCCCC3)o1)C(C)(C)CCC2(C)C` [drawing 1445], the inhibition at 10 µM was found to be 65%.

In the case of `Cc1cc2c(cc1Cc1ccc(C(=O)N3CC(C)CC(C)C3)o1)C(C)(C)CCC2(C)C` (centres unmarked) [drawing 1446], the inhibition at 10 µM came to 90%.

As to `Cc1cc2c(cc1Cc1ccc(C(=O)NC(C)CCCC(C)C)o1)C(C)(C)CCC2(C)C` (centres unmarked) [drawing 1447], the inhibition at 10 µM came out at 72%.

Consider `Cc1cc2c(cc1Cc1ccc(C(=O)NCCC3=CCCCC3)o1)C(C)(C)CCC2(C)C` [drawing 1448], for which the inhibition at 10 µM amounted to 84%.

With `Cc1cc2c(cc1Cc1ccc(C(=O)NCCNc3cccc4ccccc34)o1)C(C)(C)CCC2(C)C` [drawing 1449], the inhibition at 10 µM amounted to 56%.

Consider `Cc1cc2c(cc1Cc1ccc(C(=O)NC(C)(C)C)o1)C(C)(C)CCC2(C)C` [drawing 1450], for which the inhibition at 10 µM was 72%.

As to `CCN(CCO)C(=O)c1ccc(Cc2cc3c(cc2C)C(C)(C)CCC3(C)C)o1` [drawing 1451], the inhibition at 10 µM amounted to 81%.

As to `Cc1cc2c(cc1Cc1ccc(C(=O)NCCc3ccccc3)o1)C(C)(C)CCC2(C)C` [drawing 1452], the inhibition at 10 µM was determined as 73%.

Turning to `COCC(C)NC(=O)c1ccc(Cc2cc3c(cc2C)C(C)(C)CCC3(C)C)o1` (centres unmarked) [drawing 1454], the inhibition at 10 µM stood at 91%.

`Cc1ccc(N2CCN(C(=O)c3ccc(Cc4cc5c(cc4C)C(C)(C)CCC5(C)C)o3)CC2)c(C)c1` [drawing 1455]: the inhibition at 10 µM was 52%.

As to `Cc1cc2c(cc1Cc1ccc(C(=O)NC3CCC3)o1)C(C)(C)CCC2(C)C` [drawing 1456], the inhibition at 10 µM was found to be 60%.

In the case of `Cc1cc2c(cc1Cc1ccc(C(=O)N3CCC(N4CCCC4)CC3)o1)C(C)(C)CCC2(C)C` [drawing 1458], the inhibition at 10 µM is 96%.

As to `Cc1cc2c(cc1Cc1ccc(C(=O)N(CCc3ccccn3)Cc3ccccc3)o1)C(C)(C)CCC2(C)C` [drawing 1459], the inhibition at 10 µM was 76%.

For the molecule `Cc1cc2c(cc1Cc1ccc(C(=O)N(CCN3CCCCC3)Cc3ccccc3)o1)C(C)(C)CCC2(C)C` [drawing 1460], the inhibition at 10 µM was 104%.

Take `Cc1cc2c(cc1Cc1ccc(C(=O)N(CCN3CCOCC3)Cc3ccccc3)o1)C(C)(C)CCC2(C)C` [drawing 1461]: the inhibition at 10 µM is 91%.

With `Cc1cc2c(cc1Cc1ccc(C(=O)N(CCN3CCCC3)Cc3ccccc3)o1)C(C)(C)CCC2(C)C` [drawing 1462], the inhibition at 10 µM came out at 100%.

For `Cc1cc2c(cc1Cc1ccc(C(=O)NC(C)C3CCCCC3)o1)C(C)(C)CCC2(C)C` (centres unmarked) [drawing 1463], the inhibition at 10 µM was found to be 72%.

As for `Cc1cc2c(cc1Cc1ccc(C(=O)NC3(CO)CCCC3)o1)C(C)(C)CCC2(C)C` [drawing 1464], the inhibition at 10 µM came out at 98%.

Take `Cc1cc2c(cc1Cc1ccc(C(=O)NC(CO)CC3CCCCC3)o1)C(C)(C)CCC2(C)C` (centres unmarked) [drawing 1465]: the inhibition at 10 µM turned out to be 76%.

`Cc1cc2c(cc1Cc1ccc(C(=O)NC[C@@H]3CCCC[C@H]3O)o1)C(C)(C)CCC2(C)C` [drawing 1466]: the inhibition at 10 µM turned out to be 97%.

For `Cc1cc2c(cc1Cc1ccc(C(=O)N3CCC(C(=O)c4ccc(F)cc4)CC3)o1)C(C)(C)CCC2(C)C` [drawing 1467], the inhibition at 10 µM was 63%.

As to `Cc1cc2c(cc1Cc1ccc(C(=O)N3CCN(c4cccc(C)c4C)CC3)o1)C(C)(C)CCC2(C)C` [drawing 1468], the inhibition at 10 µM amounted to 58%.

For the molecule `Cc1cc2c(cc1Cc1ccc(C(=O)NCC(O)c3ccccc3)o1)C(C)(C)CCC2(C)C` (centres unmarked) [drawing 1470], the inhibition at 10 µM worked out at 101%.

Turning to `Cc1cc2c(cc1Cc1ccc(C(=O)N(C)CCC=C3c4ccccc4CCc4ccccc43)o1)C(C)(C)CCC2(C)C` [drawing 1472], the inhibition at 10 µM turned out to be 58%.

For the molecule `Cc1cc2c(cc1Cc1ccc(C(=O)N(CCC#N)Cc3cccnc3)o1)C(C)(C)CCC2(C)C` [drawing 1473], the inhibition at 10 µM stood at 91%.

Consider `Cc1cc2c(cc1Cc1ccc(C(=O)N(Cc3ccc(C(C)C)cc3)Cc3cccnc3)o1)C(C)(C)CCC2(C)C` [drawing 1474], for which the inhibition at 10 µM came to 76%.

Take `Cc1cc2c(cc1Cc1ccc(C(=O)N(Cc3cccnc3)Cc3cccc(C(F)(F)F)c3)o1)C(C)(C)CCC2(C)C` [drawing 1475]: the inhibition at 10 µM was found to be 80%.

For `Cc1cc2c(cc1Cc1ccc(C(=O)NC(CO)C(C)C)o1)C(C)(C)CCC2(C)C` (centres unmarked) [drawing 1478], the inhibition at 10 µM was determined as 87%.

Take `CCCN(Cc1ccc([N+](=O)[O-])cc1)C(=O)c1ccc(Cc2cc3c(cc2C)C(C)(C)CCC3(C)C)o1` [drawing 1480]: the inhibition at 10 µM was determined as 66%.

In the case of `CCC(CO)NC(=O)c1ccc(Cc2cc3c(cc2C)C(C)(C)CCC3(C)C)o1` (centres unmarked) [drawing 1481], the inhibition at 10 µM was found to be 89%.
